The record followed here is the supplement of paper PMC10307832.

Common to all, as to experiment: relative viability (nuclei count vs DMSO), 5 days (fraction); higher = more cells survive
Compound in test [1]: CC(C)C[C@H](NC(=O)[C@H](Cc1ccccc1)NC(=O)c1cnccn1)B(O)O [Bortezomib] + CCNC(=O)c1noc(-c2cc(C(C)C)c(O)cc2O)c1-c1ccc(CN2CCOCC2)cc1 [Luminespib] (partner 0.01 µM)
In outline:
(§1)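 One day after seeding in 1536-well plates, lung cancer cell lines were dosed by pin tool. Dosing was either single-drug or a fixed anchor-drug dose plus five library-drug doses (not always all listed) in √10 steps. After 5 days, nuclei were stained in one fix-and-stain step and counted on 4× images, and relative viability is the nuclei count of treated wells over that of vehicle wells, given as the median of duplicate plates.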

Compound in test [2]: CC(C)C[C@H](NC(=O)[C@H](Cc1ccccc1)NC(=O)c1cnccn1)B(O)O [Bortezomib] + C[C@@H](Oc1cc(-c2cnn(C3CCNCC3)c2)cnc1N)c1c(Cl)ccc(F)c1Cl [Crizotinib] (partner 1 µM)
A digest of the protocol:
as §1

Compound in test [3]: CC1=CC(=NN1)NC2=CC(=NC(=N2)/C=C/C3=CC=CC=C3)N4CCN(CC4)C + CC(=O)c1c(C)c2cnc(Nc3ccc(N4CCNCC4)cn3)nc2n(C2CCCC2)c1=O [Palbociclib] (partner 0.5 µM)
A digest of the protocol: as §1

Compound in test [4]: COC1=CC(c2cc3ccccc3[nH]2)=N/C1=C\c1[nH]c(C)cc1C [Obatoclax] + N=C(N)NC(=N)NCCc1ccccc1 [Phenformin] (partner 250 µM)
A digest of the protocol:
as §1

Consider NCI-H650, for which the relative viability amounted to 0.731 in test [1] (first compound 0.000632 µM); 0.676 in test [1] (first compound 0.002 µM); 0.469 in test [1] (first compound 0.006325 µM); 0.155 in test [1] (first compound 0.02 µM); 0.753 in test [2] (first compound 0.000632 µM); 0.584 in test [2] (first compound 0.002 µM). The relative viability in test [2] (first compound 0.006325 µM) was 0.25; in test [2] (first compound 0.02 µM), 0.177; in test [3] (first compound 0.08 µM), 0.288; in test [3] (first compound 0.253 µM), 0.321; in test [3] (first compound 0.8 µM) it was 0.339; in test [3] (first compound 2.53 µM), 0.294. Moreover, the relative viability in test [3] (first compound 8 µM) came to 0.177; in test [4] (first compound 0.01 µM), 0.454; in test [4] (first compound 0.03162 µM) it was 0.395; in test [4] (first compound 0.3162 µM) it was 0.314; in test [4] (first compound 1 µM), 0.288.
